Measured values as given in ChEMBL document CHEMBL4699511, “Cedrol, a Sesquiterpene Alcohol, Enhances the Anticancer Efficacy of Temozolomide in Attenuating Drug Resistance via Regulation of the DNA Damage Response and MGMT Expression” (J Nat Prod, 2020).
Blank lines part the entries; values can stand above or below the compound they belong to. Activity calls are given as the source filed them. The calls are words filed in the database; no cut-off is given here.

Key:
[1] = system: DBTRG-05MG; assay: Synergistic cytotoxicity against human DBTRG-05MG cells assessed as synergistic effect index at 112.4 uM after 48 hrs in presence of 309 uM TMZ by MTT assay; type: functional
[2] = system: DBTRG-05MG; assay: Synergistic cytotoxicity against human DBTRG-05MG cells assessed as synergistic effect index at 134.9 uM after 48 hrs in presence of 515.1 uM TMZ by MTT assay; type: functional
[3] = system: RG2; assay: Induction of apoptosis in rat RG2 cells assessed as Bcl2 expression at 112.4 uM after 48 hrs by Western blot analysis (reference value: 1); type: functional
[4] = system: RG2; assay: Induction of apoptosis in rat RG2 cells assessed as cleaved caspace-3 expression at 112.4 uM after 48 hrs in presence of TMZ by Western blot analysis (reference value: 1); type: functional
[5] = system: RG2; assay: Synergistic cytotoxicity against rat RG2 cells assessed as combination index at 89.9 uM after 48 hrs in presence of 412.1 uM TMZ by MTT assay; type: functional
[6] = system: RG2; assay: Induction of apoptosis in rat RG2 cells assessed as Bcl2 expression at 112.4 uM after 48 hrs in presence of TMZ by Western blot analysis (reference value: 1); type: functional
[7] = Effect on JNK expression in human DBTRG-05MG cells at 112.4uM after 48 hrs by Western blot analysis (reference value: 1); type: functional
[8] = system: DBTRG-05MG; assay: Induction of cell cycle arrest in human DBTRG-05MG cells assessed as CyclinD1 expression at 112.4 uM after 48 hrs by Western blot analysis (reference value: 1); type: functional
[9] = Synergistic cytotoxicity against rat CTX TNA2 cells assessed as synergistic effect index at 89.9 uM after 48 hrs in presence of 103 uM TMZ by MTT assay; type: cell-based; details: ctx tna2, 48 h
[10] = Effect on ERK expression in rat RG2 cells at 112.4uM after 48 hrs by Western blot analysis (reference value: 1); type: functional
[11] = system: RG2; assay: Induction of DNA damage in rat RG2 cells assessed as H2A.X phosphorylation at ser139 at 112.4 uM after 48 hrs in presence of TMZ by Western blot analysis (reference value: 1); type: functional
[12] = Synergistic cytotoxicity against rat CTX TNA2 cells assessed as synergistic effect index at 134.9 uM after 48 hrs in presence of 309 uM TMZ by MTT assay; type: cell-based; details: ctx tna2, 48 h
[13] = system: DBTRG-05MG; assay: Induction of apoptosis in human DBTRG-05MG cells assessed as Bcl2 expression at 112.4 uM after 48 hrs by Western blot analysis (reference value: 1); type: functional
[14] = system: DBTRG-05MG; assay: Induction of cell cycle arrest in human DBTRG-05MG cells assessed as accumulation at S phase at 112.4 uM after 6 hrs in presence of TMZ by propidium iodide staining based flow cytometric analysis (reference value: 22.76 +/- 1.56%); type: functional
[15] = system: RG2; assay: Synergistic cytotoxicity against rat RG2 cells assessed as synergistic effect index at 134.9 uM after 48 hrs in presence of 206 uM TMZ by MTT assay; type: functional
[16] = Synergistic cytotoxicity against rat CTX TNA2 cells assessed as combination index at 89.9 uM after 48 hrs in presence of 515.1 uM TMZ by MTT assay; type: cell-based; details: ctx tna2, 48 h
[17] = system: RG2; assay: Induction of apoptosis in rat RG2 cells assessed as increase in DNA fragmentation at 112.4 uM after 48 hrs in presence of TMZ by TUNEL assay; type: functional, cell-based
[18] = system: DBTRG-05MG; assay: Induction of cell cycle arrest in human DBTRG-05MG cells assessed as CyclinB1 expression at 112.4 uM after 48 hrs by Western blot analysis (reference value: 1); type: functional
[19] = system: DBTRG-05MG; assay: Synergistic cytotoxicity against human DBTRG-05MG cells assessed as combination index at 112.4 uM after 48 hrs in presence of 103 uM TMZ by MTT assay; type: functional
[20] = system: DBTRG-05MG; assay: Induction of apoptosis in human DBTRG-05MG cells assessed as cleaved caspace-9 expression at 112.4 uM after 48 hrs by Western blot analysis (reference value: 1); type: functional
[21] = system: RG2; assay: Inhibition of AKT phosphorylation at S473 residues in rat RG2 cells at 112.4uM after 48 hrs in presence of TMZ by Western blot analysis; type: cell-based
[22] = system: DBTRG-05MG; assay: Synergistic cytotoxicity against human DBTRG-05MG cells assessed as synergistic effect index at 134.9 uM after 48 hrs in presence of 103 uM TMZ by MTT assay; type: functional
[23] = target: MAP kinase p38 (Homo sapiens) (UniProt O15264+Q15759+Q16539+P53778); assay: Inhibition of p38 phosphorylation at Tyr182 residues in human DBTRG-05MG cells at 206 uM after 48 hrs by Western blot analysis (reference value: 1); type: cell-based
[24] = Effect on p38 expression in rat RG2 cells at 206 uM after 48 hrs by Western blot analysis (reference value: 1); type: functional
[25] = system: DBTRG-05MG; assay: Induction of cell cycle arrest in human DBTRG-05MG cells assessed as accumulation at G2/M phase at 206 uM after 12 hrs by propidium iodide staining based flow cytometric analysis (reference value: 30.08 +/- 0.1%); type: functional
[26] = system: RG2; assay: Induction of cell cycle arrest in rat RG2 cells assessed as CyclinD1 expression at 206 uM after 48 hrs by Western blot analysis (reference value: 1); type: functional
[27] = system: RG2; assay: Induction of cell cycle arrest in rat RG2 cells assessed as CDK2 expression at 206 uM after 48 hrs by Western blot analysis (reference value: 1); type: functional
[28] = system: RG2; assay: Induction of cell cycle arrest in rat RG2 cells assessed as accumulation at G2/M phase at 206 uM after 6 hrs by propidium iodide staining based flow cytometric analysis (reference value: 20.04 +/- 0.55%); type: functional
[29] = system: DBTRG-05MG; assay: Induction of DNA damage in human DBTRG-05MG cells assessed as Chk2 phosphorylation at Thr68 residues at 206 uM after 48 hrs by Western blot analysis (reference value: 1); type: functional
[30] = system: DBTRG-05MG; assay: Induction of cell cycle arrest in human DBTRG-05MG cells assessed as accumulation at G2/M phase at 206 uM after 24 hrs by propidium iodide staining based flow cytometric analysis (reference value: 30.08 +/- 0.1%); type: functional
[31] = system: DBTRG-05MG; assay: Induction of apoptosis in human DBTRG-05MG cells assessed as Bcl2 expression at 206 uM after 48 hrs by Western blot analysis (reference value: 1); type: functional
[32] = system: RG2; assay: Induction of cell cycle arrest in rat RG2 cells assessed as CDK4 expression at 206 uM after 48 hrs by Western blot analysis (reference value: 1); type: functional
[33] = system: RG2; assay: Induction of cell cycle arrest in rat RG2 cells assessed as accumulation at G0/G1 phase at 206 uM after 6 hrs by propidium iodide staining based flow cytometric analysis (reference value: 57.81 +/- 1.9%); type: functional
[34] = system: DBTRG-05MG; assay: Induction of apoptosis in human DBTRG-05MG cells assessed as Bax expression at 206 uM after 48 hrs by Western blot analysis (reference value: 1); type: functional
[35] = system: DBTRG-05MG; assay: Induction of cell cycle arrest in human DBTRG-05MG cells assessed as CDK2 expression at 206 uM after 48 hrs by Western blot analysis (reference value: 1); type: functional

SMILES: C[C@@H]1CC[C@H]2C(C)(C)[C@H]3C[C@@]12CC[C@@]3(C)O [CEDROL]
Activity_index [1]: 0.87
Activity_index [2]: 0.89
fold change (FC) [3]: 1.1
fold change (FC) [4]: 3.3
CI [5]: 1.34
fold change (FC) [6]: 0.9
fold change (FC) [7]: 0.8
fold change (FC) [8]: 0.7
Activity_index [9]: 0.24
fold change (FC) [10]: 1.1
fold change (FC) [11]: 1.3
Activity_index [12]: 0.52
fold change (FC) [13]: 1.3
Activity [14]: 18.29%
Activity_index [15]: 0.91
CI [16]: 0.89
Activity [17]: Active
fold change (FC) [18]: 0.5
CI [19]: 0.56
fold change (FC) [20]: 1.1
fold change (FC) [21]: 0.5
Activity_index [22]: 0.86

fold change (FC) [23]: 1.2
SMILES: Cn1nnc2c(C(N)=O)ncn2c1=O [TEMOZOLOMIDE]
fold change (FC) [24]: 0.7
Activity [25]: 35.43%
fold change (FC) [26]: 1
fold change (FC) [27]: 0.9
Activity [28]: 20.81%
fold change (FC) [29]: 2
Activity [30]: 43.53%
fold change (FC) [31]: 1.3
fold change (FC) [32]: 0.6
Activity [33]: 54.73%
fold change (FC) [34]: 1.4
fold change (FC) [35]: 0.8
